According to paper PMC8456852 (Clinical Pharmacology in Drug Development, 2021):

What was measured:
[1] = cited from earlier work; for Maximum concentration: studied as individual components, abacavir 600 mg and lamivudine 300 mg
[2] = clinical; conditions: human, in vivo, po
[3] = for Geometric mean area under the concentration‐time curve: AUC type not specified; for CL/F (apparent clearance): Overall (N = 12), healthy Japanese, arithmetic mean (SD); for AUC0‐∞, healthy Japanese (this study) vs ING114580 / Maximum concentration, healthy Japanese (this study) vs ING114580: greater in healthy Japanese participants
[4] = test system: adenosine triphosphate–binding cassette subfamily G transport protein (ABCG2); conditions: cited from earlier work
[5] = cited from earlier work
[6] = test system: uridine diphosphate glucuronosyltransferase family 1 member A1 (UGT1A1); conditions: cited from earlier work
[7] = N = 12 healthy Japanese, single oral dose, fasted
[8] = dolutegravir twice‐daily dosing

## Nc1nc(NC2CC2)c2ncn([C@H]3C=C[C@@H](CO)C3)c2n1 [Abacavir, abacavir]
[1]
  Maximum concentration: 4.26 ± 1.19 µg/mL
[2]; both
  Cmax: 5380 ng/mL
  Tmax: 1.01 h
  concentration at 24 h: 6.75 ng/mL
  half-life: 2.84 h
[2]; female
  CL/F: 10.5 mL/min/kg
  Cmax: 5770 ng/mL
  Tmax: 1.51 h
  concentration at 24 h: 6.6 ng/mL
  half-life: 2.87 h
[2]; male
  CL/F: 9 mL/min/kg
  Cmax: 4600 ng/mL
  Tmax: 0.99 h
  concentration at 24 h: 7.1 ng/mL
  half-life: 2.77 h
[3]; [7]
  Geometric mean CL/F: 32.9 L/h
  Geometric mean maximum plasma concentration: 5.22 µg/mL
  Geometric mean area under the concentration‐time curve: 18200 ng·h/mL
[3]; single oral dose, fasted
  CL/F (apparent clearance): 33.7 (8.54) L/h
[3]
  AUC0‐∞, healthy Japanese (this study) vs ING114580: ≈ 1.3 fold
  Maximum concentration, healthy Japanese (this study) vs ING114580: 1.3 fold

## C[C@@H]1CCO[C@H]2Cn3cc(C(=O)NCc4ccc(F)cc4F)c(=O)c(O)c3C(=O)N12 [Dolutegravir, dolutegravir]
[1]; [8]
  Cmax (geometric mean): 4150 ng/mL
  Geometric mean AUC from time 0 to 24 hours: 75100 ng·h/mL
[1]; once‐daily dosing with atazanavir
  Increase in dolutegravir exposure with atazanavir (UGT1A1 inhibitor): ≈ 2 fold
[4]
  Substrate of ABCG2: substrate
[5]
  Exposure in individuals with ABCG2 genetic variant 421AA: demonstrably higher
[5]; evaluation of 9 phase 1/2 clinical studies
  Exposure increase in UGT1A*6 heterozygous individuals: ≈ 1.4 fold
[5]; population PK models
  Total magnitude of change in exposure from body weight: < 30%
[5]; population PK
  Oral bioavailability, higher in women than men: ≈ 21%
[6]
  Substrate of UGT1A1: substrate
[2]; both
  Cmax: 4210 ng/mL
  Tmax: 3.5 h
  concentration at 24 h: 1150 ng/mL
[2]; female
  CL/F: 0.167 mL/min/kg
  Cmax: 4450 ng/mL
  Tmax: 2.98 h
  concentration at 24 h: 1130 ng/mL
  half-life: 13.7 h
[2]; male
  CL/F: 0.167 mL/min/kg
  Cmax: 3750 ng/mL
  Tmax: 4 h
  concentration at 24 h: 1180 ng/mL
  half-life: 14.6 h
[3]; [7]
  Exposure (geometric mean AUC0‐∞) of dolutegravir vs abacavir and lamivudine: ≈ 4 times
  Geometric mean CL/F: 0.678 L/h
  Geometric mean maximum plasma concentration: 4.13 µg/mL
  tmax relative to abacavir (times more slowly): 3 times
  Geometric mean area under the concentration‐time curve: 71600 ng·h/mL
[3]; single oral dose, fasted
  CL/F (apparent clearance): 0.691 (0.145) L/h
[3]; higher than in healthy Japanese participants given dolutegravir 50 mg alone
  Exposure, this study vs ING115381: 1.9 fold

## Nc1ccn([C@@H]2CS[C@H](CO)O2)c(=O)n1 [Lamivudine, lamivudine]
[1]
  Maximum concentration: 2.04 ± 0.54 µg/mL
[2]; both
  Cmax: 3430 ng/mL
  Tmax: 2.98 h
  concentration at 24 h: 38.7 ng/mL
[2]; female
  Cmax: 3650 ng/mL
  Tmax: 2.98 h
  concentration at 24 h: 32.6 ng/mL
[2]; male
  Cmax: 2980 ng/mL
  Tmax: 2.5 h
  concentration at 24 h: 50.9 ng/mL
[3]; [7]
  Geometric mean maximum plasma concentration: 3.35 µg/mL
  tmax relative to abacavir (times more slowly): 3 times
  Geometric mean area under the concentration‐time curve: 16600 ng·h/mL
[3]
  AUC0‐∞, healthy Japanese (this study) vs ING114580: ≈ 1.3 fold
  Maximum concentration, healthy Japanese (this study) vs ING114580: 1.6 fold
[3]; higher than previously reported in Japanese participants (abacavir/lamivudine formulation)
  Median tmax, this study vs EPZ104807: 1.5 fold
